Laboratory results: US10865191B2, “Heterocyclic compounds useful as modulators of TNF alpha” (BRISTOL-MYERS SQUIBB COMPANY, priority 2015, dated 2020)
Like-named read-outs stand apart in the source and are kept apart here.

Target: TNFα (Homo sapiens, UniProt P01375)
Test: TNF induced HEK-Blue assay (NF-kB-driven secreted alkaline phosphatase reporter)
Format: cell-based
Details: TNFα 0.5 ng/mL, HEK-Blue-CD40L cells, 18 h
Procedure, shortened: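 HEK-Blue-CD40L cells (NF-kB-driven SEAP reporter), 20,000/well, added after 30 min pre-incubation of compound (0.004–25 μM final) with TNFα 0.5 ng/mL final at 37 °C; 18 h incubation. SEAP read with QUANTI-Blue at 620 nm; IC50 from 4-parameter logistic fit, normalized to unstimulated and stimulated DMSO controls.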

[1] = read-out: TNF induced HEK-Blue assay IC50 value

Sequence of TNFα (P01375 77-233 limits assumed): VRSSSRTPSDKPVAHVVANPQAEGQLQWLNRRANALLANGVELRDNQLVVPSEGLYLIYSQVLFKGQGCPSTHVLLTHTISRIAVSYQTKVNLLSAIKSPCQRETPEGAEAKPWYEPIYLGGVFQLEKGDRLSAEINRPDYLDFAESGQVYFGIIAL

Row | SMILES | IC50 [1] [µM] | IC50 (TNF induced HEK-Blue assay IC50 value) [µM]
1 | CC(Nc1c(Cl)cnc2ccc(-c3ccc(C(C)(C)O)cc3)cc12)c1cnco1 (racemic) [Example 203, 2-(4-(3-chloro-4-((1-(oxazol-5-yl)ethyl)amino)quinolin-6-yl)phenyl)propan-2-ol] | < 1 | –
2 | Cc1ccc(C)c(Nc2c(Cl)c(CN)nc3ccc(-c4ccc(C#N)nc4)cc23)c1 [Example 43, 5-(2-(aminomethyl)-3-chloro-4-((2,5-dimethylphenyl)amino)quinolin-6-yl)picolinonitrile] | 1 to 10 | –
3 | CC(Nc1c(Cl)cnc2cc(F)c(-c3cnc(C(C)(C)O)cn3)cc12)c1ccccc1F (racemic) [Example 294, 2-(5-(3-chloro-7-fluoro-4-((1-(2-fluorophenyl)ethyl)amino)quinolin-6-yl)pyrazin-2-yl)propan-2-ol] | < 1 | –
4 | CC(Nc1c(Cl)cnc2cc(F)c(-c3cnc(N4CCN(C(=O)[C@@H](N)CO)CC4)nc3)cc12)c1ccccc1F (single isomer, unassigned) [Example 604] | < 1 | –
5 | Cc1nc2ccc(-c3cnc(N4CCN(CC(=O)O)CC4)nc3)cc2c(N[C@H](C)c2cc(-c3cn[nH]c3)ccc2F)c1Cl [Example 342, (R)-2-(4-(5-(3-chloro-4-((1-(2-fluoro-5-(1H-pyrazol-4-yl)phenyl)ethyl)amino)-2-methylquinolin-6-yl)pyrimidin-2-yl)piperazin-1-yl)acetic acid] | < 1 | –
6 | CC(C)(O)c1ncc(-c2nc3c(N[C@H](c4cc(C(O)CO)ccc4F)C(F)F)c(Cl)cnc3cc2F)cn1 (stereo partly drawn) [Example 488, 1-(3-((R)-1-((3-chloro-7-fluoro-6-(2-(2-hydroxypropan-2-yl)pyrimidin-5-yl)-1,5-naphthyridin-4-yl)amino)-2,2-difluoroethyl)-4-fluorophenyl)ethane-1,2-diol] | < 1 | –
7 | Cc1nc2ccc(-c3cnc(N4CCOCC4)nc3)cc2c(NC(C)c2ccccc2F)c1Cl (racemic) [Example 311, 3-chloro-N-(1-(2-fluorophenyl)ethyl)-2-methyl-6-(2-morpholinopyrimidin-5-yl)quinolin-4-amine] | < 1 | –
8 | CNc1ncc(-c2ccc3ncc(Cl)c(N[C@H](C)c4ccccc4F)c3c2)cn1 [Example 17, (R)-3-chloro-N-(1-(2-fluorophenyl)ethyl)-6-(2-(methylamino)pyrimidin-5-yl)quinolin-4-amine] | 10 to 25 | –
9 | COC(=O)[C@H](CNC(C)=O)N1CCN(c2ncc(-c3ccc4ncc(Cl)c(N[C@H](C)c5ccccc5F)c4c3)cn2)CC1 [Example 109, methyl (S)-3-acetamido-2-(4-(5-(3-chloro-4-(((R)-1-(2-fluorophenyl)ethyl)amino)quinolin-6-yl)pyrimidin-2-yl)piperazin-1-yl)propanoate] | 1 to 10 | –
10 | Cc1nc2ccc(-c3cnc(C(C)(C)O)nc3)cc2c(-c2ccccc2-c2ccccc2)c1Cl [Example 353, 2-(5-(4-([1,1′-biphenyl]-2-yl)-3-chloro-2-methylquinolin-6-yl)pyrimidin-2-yl)propan-2-ol] | 1 to 10 | –
11 | C[C@@H](Nc1c(Cl)cnc2ccc(-c3cnc(C(C)(C)O)nc3)cc12)c1cc(-c2cc(C(=O)O)[nH]n2)ccc1F [Example 428, (R)-3-(3-(1-((3-chloro-6-(2-(2-hydroxypropan-2-yl)pyrimidin-5-yl)quinolin-4-yl)amino)ethyl)-4-fluorophenyl)-1H-pyrazole-5-carboxylic acid] | 10 to 25 | –
12 | CC(C)(O)c1ncc(-c2ccc3ncc(Cl)c(NC(CC(F)(F)F)c4ccccc4F)c3c2)cn1 (racemic) [Example 169, 2-(5-(3-chloro-4-((3,3,3-trifluoro-1-(2-fluorophenyl)propyl)amino)quinolin-6-yl)pyrimidin-2-yl)propan-2-ol] | < 1 | –
13 | CC(Nc1c(Cl)cnc2c(Cl)cc(-c3cnn(C)c3)cc12)c1ccccc1F (racemic) [Example 20, 3,8-dichloro-N-(1-(2-fluorophenyl)ethyl)-6-(1-methyl-1H-pyrazol-4-yl)quinolin-4-amine] | 10 to 25 | –
14 | COC(=O)C1CCN(c2ncc(-c3cc4c(N[C@H](C)c5ccccc5F)c(Cl)cnc4cc3F)cn2)C1 (mixture of isomers) [Example 281, methyl 1-(5-(3-chloro-7-fluoro-4-(((R)-1-(2-fluorophenyl)ethyl)amino)quinolin-6-yl)pyrimidin-2-yl)pyrrolidine-3-carboxylate] | < 1 | –
15 | Cc1ncc(-c2ccc(F)c([C@@H](C)Nc3c(Cl)c(C)nc4ccccc34)c2)cn1 [Example 534, (R)-3-chloro-N-(1-(2-fluoro-5-(2-methylpyrimidin-5-yl)phenyl)ethyl)-2-methylquinolin-4-amine] | < 1 | –
16 | CC(Nc1c(Cl)cnc2ccc(-c3ccc(C(C)(C)O)cc3)cc12)c1cncs1 (racemic) [Example 211, 2-(4-(3-chloro-4-((1-(thiazol-5-yl)ethyl)amino)quinolin-6-yl)phenyl)propan-2-ol] | < 1 | –

Next, values leading:

Row | IC50 [1] [µM] | IC50 (TNF induced HEK-Blue assay IC50 value) [µM] | SMILES
17 | 10 to 25 | – | COc1ccc(F)c([C@@H](C)Nc2ccnc3ccc(Cl)cc23)c1 [Example 456, (R)-6-chloro-N-(1-(2-fluoro-5-methoxyphenyl)ethyl)quinolin-4-amine]
18 | 1 to 10 | – | CC(Nc1c(Cl)cnc2c(Cl)cc(-c3ccc(C(C)(C)O)cc3)cc12)c1ccccc1F (racemic) [Example 21, 2-(4-(3,8-dichloro-4-((1-(2-fluorophenyl)ethyl)amino)quinolin-6-yl)phenyl)propan-2-ol]
19 | < 1 | – | CCn1cc(-c2ccc(F)c([C@@H](C)Nc3c(Cl)cnc4ccccc34)c2)cn1 [Example 473, (R)-3-chloro-N-(1-(5-(1-ethyl-1H-pyrazol-4-yl)-2-fluorophenyl)ethyl)quinolin-4-amine]
20 | < 1 | – | C[C@@H](Nc1c(Cl)cnc2ccc(-c3cnc([C@]4(O)CCC[C@H]4O)nc3)cc12)c1ccccc1F [Example 121, (1R,2R)-1-(5-(3-chloro-4-(((R)-1-(2-fluorophenyl)ethyl)amino)quinolin-6-yl)pyrimidin-2-yl)cyclopentane-1,2-diol]
21 | 1 to 10 | – | C[C@@H](Nc1c(Cl)cnc2ccc(-c3ccc(N4CCOC[C@H]4CO)nc3)cc12)c1ccccc1F [Example 85, ((R)-4-(5-(3-chloro-4-(((R)-1-(2-fluorophenyl)ethyl)amino)quinolin-6-yl)pyridin-2-yl)morpholin-3-yl)methanol]
22 | 10 to 25 | – | C[C@@H](Nc1c(Cl)cnc2cc(F)c(-c3cnc(C(C)(C)O)nc3)nc12)c1cccc(C(N)=O)c1 [Example 581, (R)-3-(1-((3-chloro-7-fluoro-6-(2-(2-hydroxypropan-2-yl)pyrimidin-5-yl)-1,5-naphthyridin-4-yl)amino)ethyl)benzamide]
23 | < 1 | – | C[C@@H](Nc1c(Cl)cnc2cc(F)c(-c3cnc(C(C)(C)O)nc3)nc12)c1cccc(C#N)c1 [Example 588, (R)-3-(1-((3-chloro-7-fluoro-6-(2-(2-hydroxypropan-2-yl)pyrimidin-5-yl)-1,5-naphthyridin-4-yl)amino)ethyl)benzonitrile]
24 | < 1 | – | C[C@@H](Nc1c(Cl)cnc2ccc(-c3cnc(C(C)(C)O)nc3)cc12)c1cc(C2NC(=O)NC2=O)ccc1F (single isomer, unassigned) [Example 423]
25 | 1 to 10 | – | C[C@@H](Nc1c(Cl)cnc2cc(F)c(-c3cnc(C(C)(C)O)nc3)nc12)c1cc(C(=O)O)ccc1F [Example 579, (R)-3-(1-((3-chloro-7-fluoro-6-(2-(2-hydroxypropan-2-yl)pyrimidin-5-yl)-1,5-naphthyridin-4-yl)amino)ethyl)-4-fluorobenzoic acid]
26 | < 1 | – | C[C@@H](Nc1c(Cl)cnc2cc(F)c(-c3cnc(C(C)(C)O)nc3)nc12)c1cccc(CO)c1 [Example 576, (R)-2-(5-(7-chloro-3-fluoro-8-((1-(3-(hydroxymethyl)phenyl)ethyl)amino)-1,5-naphthyridin-2-yl)pyrimidin-2-yl)propan-2-ol]
27 | 1 to 10 | – | C[C@@H](Nc1c(Cl)cnc2ccccc12)c1cc(CCCO)ccc1F [Example 464, (R)-3-(3-(1-((3-chloroquinolin-4-yl)amino)ethyl)-4-fluorophenyl)propan-1-ol]
28 | 10 to 25 | – | Cc1ccc(C)c(Nc2c(Cl)c(C(=O)Nc3cccnc3)nc3ccc(-c4ccc(C(N)=O)nc4)cc23)c1 [Example 37, 6-(6-carbamoylpyridin-3-yl)-3-chloro-4-((2,5-dimethylphenyl)amino)-N-(pyridin-3-yl) quinoline-2-carboxamide]
29 | – | < 1 | C[C@@H](Nc1c(Cl)cnc2ccc(-c3cnc(C(C)(C)O)nc3)cc12)c1ccccc1F [Example 217, (R)-2-(5-(3-chloro-4-(1-(2-fluorophenyl)ethylamino)quinolin-6-yl)pyrimidin-2-yl)propan-2-ol]
30 | < 1 | – | Cc1ccncc1-c1ccc(F)c([C@@H](C)Nc2c(Cl)cnc3ccccc23)c1 [Example 529, (R)-3-chloro-N-(1-(2-fluoro-5-(4-methylpyridin-3-yl)phenyl)ethyl)quinolin-4-amine]
31 | < 1 | – | Cc1nc2ccc(-c3cnc(C(C)(C)O)nc3)cc2c(N[C@H](C)c2cc(-c3cnn(C)c3)ccc2F)c1Cl [Example 344, (R)-2-(5-(3-chloro-4-((1-(2-fluoro-5-(1-methyl-1H-pyrazol-4-yl)phenyl)ethyl)amino)-2-methylquinolin-6-yl)pyrimidin-2-yl)propan-2-ol]
32 | 1 to 10 | – | Cc1nc2cc(F)c(-c3cnc(C(C)(C)O)nc3)nc2c(N[C@H](C)c2cc(C(O)CO)ccc2F)c1Cl (stereo partly drawn) [Example 570, 1-(3-((R)-1-((3-chloro-7-fluoro-6-(2-(2-hydroxypropan-2-yl)pyrimidin-5-yl)-2-methyl-1,5-naphthyridin-4-yl)amino)ethyl)-4-fluorophenyl)ethane-1,2-diol]
33 | < 1 | – | Cc1nc2ccc(-c3cnc(C(C)(C)O)nc3)cc2c(N[C@H](C)c2cc(OCCCO)ccc2F)c1Cl [Example 444, (R)-3-(3-(1-((3-chloro-6-(2-(2-hydroxypropan-2-yl)pyrimidin-5-yl)-2-methylquinolin-4-yl)amino)ethyl)-4-fluorophenoxy)propan-1-ol]
